Results reported in patent US20240368214A1, “POSITIVE NMDA-MODULATING COMPOUNDS AND METHODS OF USE THEREOF” (SAGE THERAPEUTICS, INC., priority 2021, published 2024).
Like-named read-outs stand apart in the source and are kept apart here.

Target: T1, recombinant human GluN1/GluN2A receptor (Homo sapiens, UniProt Q05586+Q12879)
T1 construct: expressed in transfected cells; host or cells: HEK293, tetracycline-inducible expression
Experiment: Whole-cell patch clamp of mammalian cells (Syncropatch 384i), NMDA modulation
Type: cell-based
Conditions: HEK293 cells, human GluN1/GluN2A, glutamate 1 μM / glycine 100 μM, -80 mV, peak amplitude increase; for EC50: read-out: EC50
In short: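 HEK293 cells with tetracycline-induced (50 ng/ml, 18–24 h) human GluN1/GluN2A, automated whole-cell recording at −80 mV, pH 7.4 external. After 120 s compound pre-incubation, compound applied with glutamate 1 μM/glycine 100 μM; fold peak increase (Icomp/Icontrol)−1 over 8 concentrations fitted four-parameter logistic.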

T1 sequence (Q12879 23-1464, other chains not shown): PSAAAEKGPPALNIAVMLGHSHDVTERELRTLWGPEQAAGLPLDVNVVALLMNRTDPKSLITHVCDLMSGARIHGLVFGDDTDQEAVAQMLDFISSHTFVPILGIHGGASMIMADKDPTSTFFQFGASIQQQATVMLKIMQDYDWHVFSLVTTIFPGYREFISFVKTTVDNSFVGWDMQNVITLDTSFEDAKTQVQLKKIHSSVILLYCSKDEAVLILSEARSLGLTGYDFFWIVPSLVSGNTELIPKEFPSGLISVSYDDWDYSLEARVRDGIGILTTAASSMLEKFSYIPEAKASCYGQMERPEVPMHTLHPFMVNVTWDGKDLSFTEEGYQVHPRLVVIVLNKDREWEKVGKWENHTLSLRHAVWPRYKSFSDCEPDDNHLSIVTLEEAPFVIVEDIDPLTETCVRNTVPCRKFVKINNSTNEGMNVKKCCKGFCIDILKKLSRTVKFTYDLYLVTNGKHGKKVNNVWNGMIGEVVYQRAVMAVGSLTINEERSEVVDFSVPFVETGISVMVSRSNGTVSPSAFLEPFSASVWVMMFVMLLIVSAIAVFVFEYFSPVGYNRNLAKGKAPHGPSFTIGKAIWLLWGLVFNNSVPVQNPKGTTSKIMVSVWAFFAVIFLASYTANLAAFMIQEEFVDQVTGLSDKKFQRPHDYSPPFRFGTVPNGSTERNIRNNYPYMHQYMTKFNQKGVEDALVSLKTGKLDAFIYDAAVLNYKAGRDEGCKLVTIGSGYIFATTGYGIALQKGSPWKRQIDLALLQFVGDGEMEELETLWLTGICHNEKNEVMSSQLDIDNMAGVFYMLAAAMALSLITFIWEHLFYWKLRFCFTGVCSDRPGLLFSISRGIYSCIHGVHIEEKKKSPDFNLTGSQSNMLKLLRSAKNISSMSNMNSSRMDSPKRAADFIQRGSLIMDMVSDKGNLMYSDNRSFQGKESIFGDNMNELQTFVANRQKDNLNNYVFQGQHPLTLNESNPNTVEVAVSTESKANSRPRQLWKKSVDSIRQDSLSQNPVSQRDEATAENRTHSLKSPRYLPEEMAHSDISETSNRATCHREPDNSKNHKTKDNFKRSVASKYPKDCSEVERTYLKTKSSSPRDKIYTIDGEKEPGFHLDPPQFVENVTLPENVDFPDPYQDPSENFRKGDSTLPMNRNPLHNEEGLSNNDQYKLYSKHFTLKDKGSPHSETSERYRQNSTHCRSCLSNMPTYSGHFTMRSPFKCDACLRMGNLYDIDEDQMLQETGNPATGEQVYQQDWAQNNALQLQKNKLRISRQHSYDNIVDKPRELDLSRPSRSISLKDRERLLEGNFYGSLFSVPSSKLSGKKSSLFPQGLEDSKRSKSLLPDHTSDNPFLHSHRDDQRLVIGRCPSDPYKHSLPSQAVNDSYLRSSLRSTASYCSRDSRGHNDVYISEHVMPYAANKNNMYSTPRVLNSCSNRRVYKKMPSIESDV

| Structure (SMILES) | EC50 (Table E-2) | EC50 (Table F-2) | also measured |
| --- | --- | --- | --- |
| CC[C@]1(O)CC[C@]2(C)C3=CC[C@]4(C)[C@@H]([C@H](C)CC[C@]5(O)CCOC5)CC[C@H]4[C@@H]3CC[C@H]2C1 [Compound E-9, (S)-3-((R)-3-((3S,5S,8S,10S,13R,14S,17R)-3-ethyl-3-hydroxy-10,13-dimethyl-2,3,4,5,6,7,8,10,12,13,14,15,16,17-tetradecahydro-1H-cyclopenta[a]phenanthren-17-yl)butyl)tetrahydrofuran-3-ol] | 1 to 100 nM |  | Emax (Table E-2): > 200% |
| C[C@H](CCCO)[C@H]1CC[C@H]2[C@@H]3CC[C@H]4C[C@@](C)(O)CC[C@]4(C)C3=CC[C@]12C [Compound E-10, (3S,5S,8S,10S,13R,14S,17R)-17-((R)-5-hydroxypentan-2-yl)-3,10,13-trimethyl-2,3,4,5,6,7,8,10,12,13,14,15,16,17-tetradecahydro-1H-cyclopenta[a]phenanthren-3-ol] | 1 to 100 nM |  | Emax (Table E-2): < 100% |
| CC(C)[C@H](O)CC[C@@H](C)[C@H]1CC[C@H]2[C@@H]3CC[C@H]4C[C@@](C)(O)CC[C@]4(C)C3=CC[C@]12C [Compound E-11, (3S,5S,8S,10S,13R,14S,17R)-17-((2R,5R)-5-hydroxy-6-methylheptan-2-yl)-3,10,13-trimethyl-2,3,4,5,6,7,8,10,12,13,14,15,16,17-tetradecahydro-1H-cyclopenta[a]phenanthren-3-ol] | 1 to 100 nM |  | Emax (Table E-2): 100 to 200% |
| CC(C)[C@@H](O)CC[C@@H](C)[C@H]1CC[C@H]2[C@@H]3CC[C@H]4C[C@@](C)(O)CC[C@]4(C)C3=CC[C@]12C [Compound E-12, (3S,5S,8S,10S,13R,14S,17R)-17-((2R,5S)-5-hydroxy-6-methylheptan-2-yl)-3,10,13-trimethyl-2,3,4,5,6,7,8,10,12,13,14,15,16,17-tetradecahydro-1H-cyclopenta[a]phenanthren-3-ol] | 1 to 100 nM |  | Emax (Table E-2): 100 to 200% |
| C[C@H](CC[C@](C)(O)C(F)(F)F)[C@H]1CC[C@H]2[C@@H]3CC[C@H]4C[C@@](C)(O)CC[C@]4(C)C3=CC[C@]12C [Compound E-13, (3S,5S,8S,10S,13R,14S,17R)-3,10,13-trimethyl-17-((2R,5S)-6,6,6-trifluoro-5-hydroxy-5-methylhexan-2-yl)-2,3,4,5,6,7,8,10,12,13,14,15,16,17-tetradecahydro-1H-cyclopenta[a]phenanthren-3-ol] | 1 to 100 nM |  |  |
| C[C@H](CC[C@@](C)(O)C(F)(F)F)[C@H]1CC[C@H]2[C@@H]3CC[C@H]4C[C@@](C)(O)CC[C@]4(C)C3=CC[C@]12C [Compound E-14, (3S,5S,8S,10S,13R,14S,17R)-3,10,13-trimethyl-17-((2R,5R)-6,6,6-trifluoro-5-hydroxy-5-methylhexan-2-yl)-2,3,4,5,6,7,8,10,12,13,14,15,16,17-tetradecahydro-1H-cyclopenta[a]phenanthren-3-ol] | 100 to 500 nM |  |  |
| C[C@H](CCC1(O)CC1)[C@H]1CC[C@H]2[C@@H]3CC[C@H]4C[C@@](C)(O)CC[C@]4(C)C3=CC[C@]12C [Compound E-15, (3S,5S,8S,10S,13R,14S,17R)-17-((R)-4-(1-hydroxycyclopropyl)butan-2-yl)-3,10,13-trimethyl-2,3,4,5,6,7,8,10,12,13,14,15,16,17-tetradecahydro-1H-cyclopenta[a]phenanthren-3-ol] | 1 to 100 nM |  |  |
| CCC(O)(CC)CC[C@@H](C)[C@H]1CC[C@H]2[C@@H]3CC[C@H]4C[C@@](C)(O)CC[C@]4(C)C3=CC[C@]12C [Compound E-16, (3S,5S,8S,10S,13R,14S,17R)-17-((R)-5-ethyl-5-hydroxyheptan-2-yl)-3,10,13-trimethyl-2,3,4,5,6,7,8,10,12,13,14,15,16,17-tetradecahydro-1H-cyclopenta[a]phenanthren-3-ol] | 500 to 1000 nM |  |  |
| CC[C@]12CC[C@H]3[C@@H](CC=C4C[C@@](C)(O)CC[C@@]43C)[C@@H]1CC[C@@H]2[C@H](C)CC[C@H](O)C(C)C [Compound F-3, (3S,8S,9S,10R,13R,14S,17R)-13-ethyl-17-((2R,5S)-5-hydroxy-6-methylheptan-2-yl)-3,10-dimethyl-2,3,4,7,8,9,10,11,12,13,14,15,16,17-tetradecahydro-1H-cyclopenta[a]phenanthren-3-ol] |  | 100 to 500 nM |  |
| CC[C@]12CC[C@H]3[C@@H](CC=C4C[C@@](C)(O)CC[C@@]43C)[C@@H]1CC[C@@H]2[C@H](C)CC[C@@H](O)C(C)C [Compound F-4, (3S,8S,9S,10R,13R,14S,17R)-13-ethyl-17-((2R,5R)-5-hydroxy-6-methylheptan-2-yl)-3,10-dimethyl-2,3,4,7,8,9,10,11,12,13,14,15,16,17-tetradecahydro-1H-cyclopenta[a]phenanthren-3-ol] |  | 100 to 500 nM |  |
| CC[C@]1(O)CC[C@@]2(C)C(=CC[C@H]3[C@@H]4CC[C@H]([C@H](C)CC[C@H](O)C(C)C)[C@@]4(CC)CC[C@@H]32)C1 [Compound F-5, (3S,8S,9S,10R,13R,14S,17R)-3,13-diethyl-17-((2R,5S)-5-hydroxy-6-methylheptan-2-yl)-10-methyl-2,3,4,7,8,9,10,11,12,13,14,15,16,17-tetradecahydro-1H-cyclopenta[a]phenanthren-3-ol] |  | 100 to 500 nM |  |
| CC[C@]1(O)CC[C@@]2(C)[C@@H](CC[C@@H]3[C@@H]2CC[C@]2(CC)[C@@H]([C@H](C)CC[C@H](O)C(C)C)CC[C@@H]32)C1 [Compound F-6, (3S,5S,8R,9S,10S,13R,14S,17R)-3,13-diethyl-17-((2R,5S)-5-hydroxy-6-methylheptan-2-yl)-10-methylhexadecahydro-1H-cyclopenta[a]phenanthren-3-ol] |  | 100 to 500 nM |  |
| CC[C@]1(O)CC[C@@]2(C)[C@@H](CC[C@@H]3[C@@H]2CC[C@]2(CC)[C@@H]([C@H](C)CC[C@@H](O)C(C)C)CC[C@@H]32)C1 [Compound F-7, (3S,5S,8R,9S,10S,13R,14S,17R)-3,13-diethyl-17-((2R,5R)-5-hydroxy-6-methylheptan-2-yl)-10-methylhexadecahydro-1H-cyclopenta[a]phenanthren-3-ol] |  | 100 to 500 nM |  |
| CC[C@]1(O)CC[C@@]2(C)[C@@H](CC[C@H]3[C@@H]4CC[C@H]([C@H](C)CC[C@H](O)C(C)C)[C@H]4CC[C@@H]32)C1 [Compound F-8, (3S,5S,8S,9S,10S,13R,14R,17R)-3-ethyl-17-((2R,5S)-5-hydroxy-6-methylheptan-2-yl)-10-methylhexadecahydro-1H-cyclopenta[a]phenanthren-3-ol] |  | 100 to 500 nM |  |
| CC[C@]1(O)CC[C@@]2(C)[C@@H](CC[C@H]3[C@@H]4CC[C@H]([C@H](C)CC[C@@H](O)C(C)C)[C@H]4CC[C@@H]32)C1 [Compound F-9, (3S,5S,8S,9S,10S,13R,14R,17R)-3-ethyl-17-((2R,5R)-5-hydroxy-6-methylheptan-2-yl)-10-methylhexadecahydro-1H-cyclopenta[a]phenanthren-3-ol] |  | 100 to 500 nM |  |
| CC[C@]1(O)CC[C@@]2(C)C(=CC[C@H]3[C@@H]4CC[C@H]([C@H](C)CC[C@@H](O)C(C)C)[C@H]4CC[C@@H]32)C1 [Compound F-10, (3S,8S,9S,10R,13R,14R,17R)-3-ethyl-17-((2R,5R)-5-hydroxy-6-methylheptan-2-yl)-10-methyl-2,3,4,7,8,9,10,11,12,13,14,15,16,17-tetradecahydro-1H-cyclopenta[a]phenanthren-3-ol] |  | 100 to 500 nM |  |
| CC[C@]1(O)CC[C@@]2(C)C(=CC[C@H]3[C@@H]4CC[C@H]([C@H](C)CC[C@@H](O)C(C)C)[C@@]4(CC)CC[C@@H]32)C1 [Compound F-14, (3S,8S,9S,10R,13R,14S,17R)-3,13-diethyl-17-((2R,5R)-5-hydroxy-6-methylheptan-2-yl)-10-methyl-2,3,4,7,8,9,10,11,12,13,14,15,16,17-tetradecahydro-1H-cyclopenta[a]phenanthren-3-ol] |  | 100 to 500 nM |  |
| CC[C@]1(O)CC[C@H]2[C@@H](CC[C@@H]3[C@@H]2CC[C@]2(C)[C@@H]([C@H](C)CC[C@](C)(O)C(F)(F)F)CC[C@@H]32)C1 [Compound G-1, (3S,5S,8R,9R,10S,13R,14S,17R)-3-ethyl-13-methyl-17-((2R,5S)-6,6,6-trifluoro-5-hydroxy-5-methylhexan-2-yl)hexadecahydro-1H-cyclopenta[a]phenanthren-3-ol] |  |  | Emax (Table G-2): > 200%; EC50 (Table G-2): 1 to 100 nM |
| CC[C@]1(O)CC[C@H]2[C@@H](CC[C@@H]3[C@@H]2CC[C@]2(C)[C@@H]([C@H](C)CC[C@@](C)(O)C(F)(F)F)CC[C@@H]32)C1 [Compound G-2, (3S,5S,8R,9R,10S,13R,14S,17R)-3-ethyl-13-methyl-17-((2R,5R)-6,6,6-trifluoro-5-hydroxy-5-methylhexan-2-yl)hexadecahydro-1H-cyclopenta[a]phenanthren-3-ol] |  |  | Emax (Table G-2): 100 to 200%; EC50 (Table G-2): 500 to 1000 nM |
| CC[C@]1(O)CC[C@@]2(CC)[C@@H](CC[C@H]3[C@@H]4CC[C@H]([C@H](C)CCCC(C)(C)O)[C@@]4(C)CC[C@@H]32)C1 [Compound G-3, (3S,5S,8S,9S,10S,13R,14S,17R)-3,10-diethyl-17-((R)-6-hydroxy-6-methylheptan-2-yl)-13-methylhexadecahydro-1H-cyclopenta[a]phenanthren-3-ol] |  |  | Emax (Table G-2): 100 to 200%; EC50 (Table G-2): 1 to 100 nM |
